Assay results reported in US20230265116A1, “DEGRADATION OF (EGFR) BY CONJUGATION OF EGFR INHIBITORS WITH E3 LIGASE LIGAND AND METHODS OF USE” (BEIGENE, LTD., priority 2020, published 2023).
Where two headings read alike, the source gives them in different places. One block for each molecule: values may come before it.

Tests used:
Type in all cases: cell-based
[1] = tested on: EGFR Del19/T790M/C797S (BaF3-DTC cells); experiment: EGFR degradation HTRF assay, BaF3-DTC cells; conditions: 16h treatment; for DTC Dmax (%): maximum percentage of degradation; for DC50: read-out: DTC DC50
Summary of the method: (§1)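 Cells treated 16 h at 37 °C, 5% CO2 in medium with 0.2% DMSO; top final concentration 10 uM, 5-fold dilution, 8 doses. Lysates read by HTRF (665/620 nm); degradation % versus DMSO high control, DC50 from four-parameter fit, Dmax as maximal degradation.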

[2] = biological target: T1, EGFR L858R/T790M/C797S (BaF3-LTC cells) (Homo sapiens, UniProt P00533, C797S/L858R/T790M); experiment: EGFR degradation HTRF assay, BaF3-LTC cells
T1 construct: expressed in transfected cells; host or cells: BaF3
Summary of the method: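 EGFR remaining after a 16 h, 37 °C exposure (8 doses, 5-fold steps from 10 uM final, 0.2% DMSO) was quantified by HTRF antibodies in cell lysate. Percent inhibition relative to DMSO control was fitted by four-parameter logistic to give DC50; Dmax denotes maximal degradation.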

[3] = biological target: T2, EGFR L858R/T790M (H1975-clone #36, homozygous) (Homo sapiens, UniProt P00533, L858R/T790M); experiment: EGFR degradation HTRF assay, H1975-clone #36 cells; conditions: H1975 #36, 16h treatment; for Dmax: NCI-H1975, maximum percentage of degradation
T2 construct: designed to specifically target WT EGFR but preserve the L858R/T790M copy; host or cells: H1975-clone #36
Summary of the method: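 Eight-point, 5-fold series starting at 10 uM (0.2% DMSO) applied for 16 h, 37 °C, to a WT-EGFR-knockout H1975 clone carrying only L858R/T790M. Lysates read by HTRF overnight. Degradation percentage relative to DMSO control fitted for DC50, with Dmax as maximum degradation.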

[4] = biological target: T3, EGFR (HCC827 cells) (Homo sapiens, UniProt P00533, DEL746-750); experiment: EGFR degradation HTRF assay, HCC827 cells; conditions: HCC827, 16h treatment; for Dmax: maximum percentage of degradation
T3 construct: endogenous in cells; host or cells: HCC827
Summary of the method: as §1

[5] = tested on: EGFR Del19/T790M/C797S (H1975-clone #28); experiment: EGFR degradation HTRF assay, H1975-clone #28 DTC cells
Summary of the method: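 Read-out is an HTRF EGFR signal (337 nm excitation, 665/620 nm) from lysates of mutant-EGFR H1975 clones in which only the exogenous EGFR survives knockout. Treatment ran 16h at 37° C. from 10 uM final downward in 5-fold steps. DC50 comes from a logistic fit and Dmax is the maximal degradation.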

[6] = tested on: EGFR Del19/C797S (H1975-clone #23); experiment: EGFR degradation HTRF assay, H1975-clone #23 DC cells; conditions: for H1975 #23 DC Dmax (%): maximum percentage of degradation
Description: H1975-clone #28(Del19/T790M/C797S) and H1975-clone #23(Del19/C797S). EGFR-Del19/T790M/C797S and EGFR-Del19/C797S were stably expressed in H1975 cell lines by lentivirus-mediated over-expression, respectively. The EGFR over-expressed cells then underwent gene knockout, in which the EGFR targeting sgRNA was designed to only target the endogenous EGFR copies and preserve the exogenous EGFR copies. Followed by the gene knockout, the edited H1975 cells were seeded in 96 well plates at the concentration of 1 cell/well, cultured for about 2 weeks to allow single clones formation. The formed clones were screened by DNA sequencing and whole exon sequencing analysis for the desired edition. H1975-clone #28 and H1975-clone #23 were finally confirmed as homozygous Del19/T790M/C797S EGFR and Del19/C797S EGFR clones, respectively.
BaF3 WT(wild type), BaF3-LTC(L858R/T790M/C797S) and BaF3-DTC(Del19/T790M/C797S) cells are treated with compounds diluted in 0.2% DMSO cell culture medium and incubate for 16h, 37° C., 5% CO2, H1975-#36, H1975-#28, H1975-#23 and HCC827 cells are treated with compounds diluted in 0.2% DMSO cell culture medium on day 2, incubate for 16h, 37° C., 5% CO2.the final concentriation of compounds in all assay is start with 10 uM, 5-fold dilution, total 8 doses were included.
After 16h treatment, add HTRF lysis buffer to each well; seal the plate and incubate 1 hour at room temperature on a plate shaker; Once the cells are lysed, 16 μL of cell lysate are transferred to a PE 384-well HTRF detection plate; 4 μL of pre-mixed HTRF antibodies are added to each well; Cover the plate with a plate sealer, spin 1000 rpm for 1 min, Incubate overnight at room temperature; Read on BMG PheraStar with HTRF protocol (337 nm-665 nm-620 nm).
The inhibition (degradation) percentage of the compound was calculated by the following equation: Inhibition percentage of Compound=100-100×(Signal-low control)/(High control-low control), wherein signal=each test compound group
High control=Cell group with added DMSO and without compound, indicating microplate readings without EGFR degradation;
Dmax is the maximum percentage of inhibition (degradation).
The IC50 (DC50) value of a compound can be obtained by fitting the following equation
Y=Bottom+(TOP−Bottom)/(1+((IC50/X)^hillslope))
Wherein, X and Y are known values, and IC50, Hillslope, Top and Bottom are the parameters obtained by fitting with software. Y is the inhibition percentage (calculated from the equation), X is the concentration of the compound; IC50 is the concentration of the compound when the 50% inhibition is reached. The smaller the IC50 value is, the stronger the inhibitory ability of the compound is. Vice versa, the higher the IC50 value is, the weaker the inhibitory ability of the compound is; Hillslope represents the slope of the fitted curve, generally around 1*; Bottom represents the minimum value of the curve obtained by data fitting, which is generally 0%±20%; Top represents the maximum value of the curve obtained by data fitting, which is generally 100%±20%. The experimental data were fitted by calculating and analyzing with Dotmatics data analysis software.

[7] = biological target: T4, EGFR L858R/C797S (BaF3 LC cells) (Homo sapiens, UniProt P00533, C797S/L858R); experiment: EGFR degradation HTRF assay, BaF3 LC cells
T4 construct: expressed in transfected cells; host or cells: BaF3

[8] = BaF3-LTC, 16h treatment, maximum percentage of degradation, read-out: LTC Dmax (%)
[9] = BaF3-LTC, 16h treatment, read-out: LTC DC50
[10] = H1975 # 28 DTC cells; maximum percentage of inhibition (degradation)
[11] = H1975 # 28 DTC cells; EGFR degradation, IC50 (DC50) from curve fit; read-out: DC50(nM) H1975 # 28 DTC
[12] = H1975 #23 DC, 16h treatment, read-out: H1975 #23 DC DC50
[13] = BaF3 LC, 16h treatment; read-out: BaF3 LC DC50

T4 sequence (P00533 25-1210 C797S/L858R): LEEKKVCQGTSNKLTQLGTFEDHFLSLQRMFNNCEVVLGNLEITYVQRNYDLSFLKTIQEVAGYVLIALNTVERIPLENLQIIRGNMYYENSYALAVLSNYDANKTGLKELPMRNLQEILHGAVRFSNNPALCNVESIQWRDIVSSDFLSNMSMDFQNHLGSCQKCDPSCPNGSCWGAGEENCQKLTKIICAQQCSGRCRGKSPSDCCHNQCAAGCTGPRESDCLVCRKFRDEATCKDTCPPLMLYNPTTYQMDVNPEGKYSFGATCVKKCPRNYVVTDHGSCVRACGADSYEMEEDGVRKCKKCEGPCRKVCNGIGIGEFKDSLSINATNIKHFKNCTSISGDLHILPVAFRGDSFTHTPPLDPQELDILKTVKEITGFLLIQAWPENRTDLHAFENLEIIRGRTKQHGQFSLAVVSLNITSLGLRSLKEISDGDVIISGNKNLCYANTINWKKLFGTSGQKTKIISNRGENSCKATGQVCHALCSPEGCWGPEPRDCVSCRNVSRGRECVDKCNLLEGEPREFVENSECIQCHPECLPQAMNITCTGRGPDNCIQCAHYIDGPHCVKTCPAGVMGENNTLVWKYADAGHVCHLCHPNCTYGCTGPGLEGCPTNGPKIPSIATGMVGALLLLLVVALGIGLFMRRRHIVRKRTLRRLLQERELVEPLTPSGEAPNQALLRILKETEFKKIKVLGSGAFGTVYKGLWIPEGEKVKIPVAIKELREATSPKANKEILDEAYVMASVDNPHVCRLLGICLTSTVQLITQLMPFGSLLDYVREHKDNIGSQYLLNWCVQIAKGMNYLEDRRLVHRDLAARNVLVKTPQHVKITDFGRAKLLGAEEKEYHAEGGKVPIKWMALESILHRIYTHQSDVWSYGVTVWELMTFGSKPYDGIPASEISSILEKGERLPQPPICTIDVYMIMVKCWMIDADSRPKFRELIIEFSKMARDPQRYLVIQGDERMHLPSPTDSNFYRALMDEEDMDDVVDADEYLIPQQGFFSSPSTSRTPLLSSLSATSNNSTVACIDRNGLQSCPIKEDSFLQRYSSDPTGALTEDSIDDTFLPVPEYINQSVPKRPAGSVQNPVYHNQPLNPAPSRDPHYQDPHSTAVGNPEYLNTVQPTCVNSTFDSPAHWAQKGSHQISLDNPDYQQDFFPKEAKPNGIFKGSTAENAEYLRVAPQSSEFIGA
T2 sequence (P00533 25-1210 T790M/L858R): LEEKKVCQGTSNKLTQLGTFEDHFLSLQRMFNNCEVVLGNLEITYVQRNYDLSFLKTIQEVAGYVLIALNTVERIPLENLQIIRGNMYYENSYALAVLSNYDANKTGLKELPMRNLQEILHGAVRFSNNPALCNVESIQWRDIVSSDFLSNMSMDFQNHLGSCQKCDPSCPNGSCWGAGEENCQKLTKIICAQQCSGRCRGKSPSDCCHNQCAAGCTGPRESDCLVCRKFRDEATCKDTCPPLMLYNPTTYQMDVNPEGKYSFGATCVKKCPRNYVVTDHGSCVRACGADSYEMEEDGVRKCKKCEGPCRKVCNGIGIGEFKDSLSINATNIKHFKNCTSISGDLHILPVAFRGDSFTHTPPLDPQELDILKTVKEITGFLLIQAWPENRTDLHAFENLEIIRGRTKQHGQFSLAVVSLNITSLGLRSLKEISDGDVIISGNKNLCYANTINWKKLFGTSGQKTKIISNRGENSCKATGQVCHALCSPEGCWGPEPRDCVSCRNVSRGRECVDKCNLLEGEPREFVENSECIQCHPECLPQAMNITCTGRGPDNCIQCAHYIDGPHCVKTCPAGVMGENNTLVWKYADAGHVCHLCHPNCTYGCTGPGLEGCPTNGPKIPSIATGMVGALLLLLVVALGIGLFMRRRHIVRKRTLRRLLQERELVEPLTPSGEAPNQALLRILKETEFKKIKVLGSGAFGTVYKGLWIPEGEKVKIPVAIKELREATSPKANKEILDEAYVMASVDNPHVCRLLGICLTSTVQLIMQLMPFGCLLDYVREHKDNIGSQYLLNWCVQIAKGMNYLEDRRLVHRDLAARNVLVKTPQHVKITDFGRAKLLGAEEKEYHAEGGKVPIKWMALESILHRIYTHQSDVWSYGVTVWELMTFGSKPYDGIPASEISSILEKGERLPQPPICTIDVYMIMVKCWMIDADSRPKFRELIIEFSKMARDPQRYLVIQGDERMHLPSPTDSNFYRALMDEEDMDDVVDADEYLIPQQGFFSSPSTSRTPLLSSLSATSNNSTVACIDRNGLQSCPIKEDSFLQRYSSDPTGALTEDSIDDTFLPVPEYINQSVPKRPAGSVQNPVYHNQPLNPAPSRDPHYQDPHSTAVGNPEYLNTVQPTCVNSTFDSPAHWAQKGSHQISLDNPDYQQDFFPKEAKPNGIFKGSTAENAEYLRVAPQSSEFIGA
T1 sequence (P00533 25-1210 T790M/C797S/L858R): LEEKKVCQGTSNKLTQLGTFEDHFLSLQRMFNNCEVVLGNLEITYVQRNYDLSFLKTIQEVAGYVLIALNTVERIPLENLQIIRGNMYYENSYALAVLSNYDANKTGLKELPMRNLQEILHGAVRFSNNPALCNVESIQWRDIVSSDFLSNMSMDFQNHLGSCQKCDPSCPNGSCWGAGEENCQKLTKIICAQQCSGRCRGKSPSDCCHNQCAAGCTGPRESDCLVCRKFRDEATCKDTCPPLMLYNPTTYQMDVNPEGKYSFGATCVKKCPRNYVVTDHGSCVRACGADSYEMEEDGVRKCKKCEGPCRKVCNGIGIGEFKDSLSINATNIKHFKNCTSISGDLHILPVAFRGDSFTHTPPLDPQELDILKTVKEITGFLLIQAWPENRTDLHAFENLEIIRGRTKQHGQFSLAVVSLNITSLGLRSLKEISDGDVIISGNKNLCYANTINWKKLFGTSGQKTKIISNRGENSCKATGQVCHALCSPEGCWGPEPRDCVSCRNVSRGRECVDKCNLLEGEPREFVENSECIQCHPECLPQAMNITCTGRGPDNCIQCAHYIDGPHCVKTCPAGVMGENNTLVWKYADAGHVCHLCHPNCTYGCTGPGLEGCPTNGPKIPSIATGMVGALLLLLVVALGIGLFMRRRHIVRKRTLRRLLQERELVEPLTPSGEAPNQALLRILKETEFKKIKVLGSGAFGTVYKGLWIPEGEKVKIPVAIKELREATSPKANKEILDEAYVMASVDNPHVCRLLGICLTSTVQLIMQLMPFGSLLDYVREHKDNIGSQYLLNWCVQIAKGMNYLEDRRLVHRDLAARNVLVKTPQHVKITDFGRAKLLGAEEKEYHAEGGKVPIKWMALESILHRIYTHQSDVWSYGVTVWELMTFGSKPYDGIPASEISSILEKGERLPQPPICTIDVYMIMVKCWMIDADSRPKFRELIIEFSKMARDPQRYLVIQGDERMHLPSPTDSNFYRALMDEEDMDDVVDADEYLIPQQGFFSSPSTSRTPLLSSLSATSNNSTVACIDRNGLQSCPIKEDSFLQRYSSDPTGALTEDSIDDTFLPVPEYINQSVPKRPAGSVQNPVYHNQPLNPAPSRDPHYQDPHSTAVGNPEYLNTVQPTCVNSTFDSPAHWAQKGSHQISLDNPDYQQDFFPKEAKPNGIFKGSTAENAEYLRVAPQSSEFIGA
T3 sequence (P00533 with tags, fused parts or gaps DEL746-750): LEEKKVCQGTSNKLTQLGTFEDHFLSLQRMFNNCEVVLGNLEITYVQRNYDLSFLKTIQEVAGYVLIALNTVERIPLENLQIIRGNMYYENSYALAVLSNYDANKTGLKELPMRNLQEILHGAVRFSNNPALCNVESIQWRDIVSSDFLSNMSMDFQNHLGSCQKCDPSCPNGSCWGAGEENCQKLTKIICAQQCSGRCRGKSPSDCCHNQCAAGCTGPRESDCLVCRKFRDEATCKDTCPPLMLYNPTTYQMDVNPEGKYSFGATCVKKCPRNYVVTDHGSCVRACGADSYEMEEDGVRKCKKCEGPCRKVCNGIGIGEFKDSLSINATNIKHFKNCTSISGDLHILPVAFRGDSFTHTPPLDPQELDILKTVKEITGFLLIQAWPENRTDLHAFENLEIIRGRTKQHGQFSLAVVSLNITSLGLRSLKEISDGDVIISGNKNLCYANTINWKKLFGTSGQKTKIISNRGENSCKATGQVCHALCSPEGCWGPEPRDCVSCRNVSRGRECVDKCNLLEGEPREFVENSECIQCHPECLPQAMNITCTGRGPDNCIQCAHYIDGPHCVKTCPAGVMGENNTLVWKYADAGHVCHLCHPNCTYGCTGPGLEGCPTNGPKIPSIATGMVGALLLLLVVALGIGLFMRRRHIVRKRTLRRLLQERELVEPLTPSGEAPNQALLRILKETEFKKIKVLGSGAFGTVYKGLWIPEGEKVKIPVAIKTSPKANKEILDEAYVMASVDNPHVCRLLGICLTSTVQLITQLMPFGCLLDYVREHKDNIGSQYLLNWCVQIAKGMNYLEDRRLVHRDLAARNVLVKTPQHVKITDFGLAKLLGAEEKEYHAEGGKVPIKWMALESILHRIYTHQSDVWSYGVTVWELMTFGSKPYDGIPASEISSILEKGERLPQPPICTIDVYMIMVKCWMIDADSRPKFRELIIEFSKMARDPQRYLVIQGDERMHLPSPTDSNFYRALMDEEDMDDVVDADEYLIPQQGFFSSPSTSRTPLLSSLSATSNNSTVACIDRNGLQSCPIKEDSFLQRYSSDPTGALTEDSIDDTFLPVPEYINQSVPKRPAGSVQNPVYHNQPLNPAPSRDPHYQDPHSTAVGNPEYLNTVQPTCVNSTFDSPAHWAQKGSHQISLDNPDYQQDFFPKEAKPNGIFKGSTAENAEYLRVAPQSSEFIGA

DC50 [5, 11]: 1.37 nM | DC50 [6, 12]: 4.72 nM | DC50 [7, 13]: 19.7 nM
Structure (SMILES): CCc1ccc2c(P(C)(C)=O)c(Nc3nc(Nc4cc(CC)c(N5CCC(N6CCN(C(=O)[C@@H]7CCN(c8cc(F)c([C@H]9CCC(=O)NC9=O)c(F)c8)C7)CC6)CC5)cc4OC)ncc3Br)ccc2n1 [Example 489, (R)-3-(4-((R)-3-(4-(1-(4-((5-bromo-4-((5-(dimethylphosphoryl)-2-ethylquinolin-6-yl)amino)pyrimidin-2-yl)amino)-2-ethyl-5-methoxyphenyl)piperidin-4-yl)piperazine-1-carbonyl)pyrrolidin-1-yl)-2,6-difluorophenyl)piperidine-2,6-dione]
Dmax (%) H1975 # 28 DTC [5, 10]: 82.72% | H1975 #23 DC Dmax (%) ([6]; 16h treatment): 59.94%

DC50 [6, 12]: 1.11 nM | Dmax ([7]; BaF3 LC, 16h treatment, maximum percentage of degradation; read-out: BaF3 LC Dmax (%)): 94.8% | DC50 [7, 13]: 1.83 nM
Structure (SMILES): CCc1ccc2c(P(C)(C)=O)c(Nc3nc(Nc4cc(CC)c(N5CCC(N6CCN(CCc7cccc8c7n(C)c(=O)n8C7CCC(=O)NC7=O)CC6)CC5)cc4OC)ncc3Br)ccc2n1 (stereo not shown) [Example 516, 3-(4-(2-(4-(1-(4-((5-bromo-4-((5-(dimethylphosphoryl)-2-ethylquinolin-6-yl)amino)pyrimidin-2-yl)amino)-2-ethyl-5-methoxyphenyl)piperidin-4-yl)piperazin-1-yl)ethyl)-3-methyl-2-oxo-2,3-dihydro-1H-benzo[d]imidazol-1-yl)piperidine-2,6-dione]
H1975 #23 DC Dmax (%) ([6]; 16h treatment): 78.66%

DC50 [5, 11]: 1.17 nM | DC50 [6, 12]: 6.52 nM | DC50 [7, 13]: 26.1 nM
Structure (SMILES): CCc1cc(Nc2ncc(Br)c(Nc3ccc4nc(C)ccc4c3P(C)(C)=O)n2)c(OC)cc1N1CCC(N2CCN(C(=O)[C@@H]3CCN(c4cc(F)c([C@H]5CCC(=O)NC5=O)c(F)c4)C3)CC2)CC1 [Example 750, (R)-3-(4-((R)-3-(4-(1-(4-((5-bromo-4-((5-(dimethylphosphoryl)-2-methylquinolin-6-yl)amino)pyrimidin-2-yl)amino)-2-ethyl-5-methoxyphenyl)piperidin-4-yl)piperazine-1-carbonyl)pyrrolidin-1-yl)-2,6-difluorophenyl)piperidine-2,6-dione]
Dmax (%) H1975 # 28 DTC [5, 10]: 84.8% | H1975 #23 DC Dmax (%) ([6]; 16h treatment): 74.02%

Continued, molecule first:

Structure (SMILES): CCc1cc(Nc2ncc(Br)c(Nc3ccc4nccnc4c3P(C)(C)=O)n2)c(OC)cc1N1CCC(N2CCN(C3CC(c4ccc5c(c4)C(C)(C)C(=O)N5C4CCC(=O)NC4=O)C3)CC2)CC1 (stereo not shown) [Example 317, 3-(5-(3-(4-(1-(4-((5-bromo-4-((5-(dimethylphosphoryl)quinoxalin-6-yl)amino)pyrimidin-2-yl)amino)-2-ethyl-5-methoxyphenyl)piperidin-4-yl)piperazin-1-yl)cyclobutyl)-3,3-dimethyl-2-oxoindolin-1-yl)piperidine-2,6-dione]
DTC Dmax (%) [1]: 90.74% | DC50 [1]: 5.17 nM | Dmax [2, 8]: 94.1% | DC50 [2, 9]: 9.47 nM | DC50 [3]: > 80 nM | Dmax [3]: 47% | DC50 [4]: 0.779 nM | Dmax [4]: 51.6%

Structure (SMILES): CCc1cc(Nc2ncc(Br)c(Nc3ccc4nccnc4c3P(C)(C)=O)n2)c(OC)cc1N1CCC(N2CCN(CCc3cccc4c3n(C)c(=O)n4C3CCC(=O)NC3=O)CC2)CC1 (stereo not shown) [Example 318, 3-(4-(2-(4-(1-(4-((5-bromo-4-((5-(dimethylphosphoryl)quinoxalin-6-yl)amino)pyrimidin-2-yl)amino)-2-ethyl-5-methoxyphenyl)piperidin-4-yl)piperazin-1-yl)ethyl)-3-methyl-2-oxo-2,3-dihydro-1H-benzo[d]imidazol-1-yl)piperidine-2,6-dione]
DTC Dmax (%) [1]: 91.99% | DC50 [1]: 3.1 nM | Dmax [2, 8]: 93.3% | DC50 [2, 9]: 4.4 nM | DC50 [3]: 2.14 nM | Dmax [3]: 88.8% | DC50 [4]: 0.601 nM | Dmax [4]: 85.2%

Structure (SMILES): CCc1ccc2c(P(C)(C)=O)c(Nc3nc(Nc4cc(CC)c(N5CCC(N6CCN(C(=O)C7CN(c8cccc9c8oc(=O)n9C8CCC(=O)NC8=O)C7)CC6)CC5)cc4OC)ncc3Br)ccc2n1 (stereo not shown) [Example 446, 3-(7-(3-(4-(1-(4-((5-bromo-4-((5-(dimethylphosphoryl)-2-ethylquinolin-6-yl)amino)pyrimidin-2-yl)amino)-2-ethyl-5-methoxyphenyl)piperidin-4-yl)piperazine-1-carbonyl)azetidin-1-yl)-2-oxobenzo[d]oxazol-3(2H)-yl)piperidine-2,6-dione]
DC50 ([2]; read-out: DC50(nM) BaF3-LTC, BaF3-LTC cells, EGFR degradation, IC50 (DC50) from curve fit): 3.89 nM | Dmax ([2]; read-out: Dmax (%) BaF3-LTC, BaF3-LTC cells, maximum percentage of inhibition (degradation)): 96.4% | Dmax (%) H1975 # 28 DTC [5, 10]: 80.48% | DC50 ([5]; read-out: DC50(nM) H1975 # 28 DTC; H1975 # 28 DTC cells; EGFR degradation, IC50 (DC50) from curve fit): 0.726 nM | H1975 #23 DC Dmax (%) ([6]; 16h treatment): 59.25% | DC50 ([6]; read-out: H1975 #23 DC DC50, 16h treatment): 0.616 nM | Dmax ([7]; BaF3, read-out: BaF3 LC Dmax (%)): 81.7% | DC50 ([7]; read-out: BaF3 LC DC50; BaF3 LC, 16h treatment): 5.87 nM

Structure (SMILES): CCc1ccc2c(P(C)(C)=O)c(Nc3nc(Nc4cc(CC)c(N5CCC(N6CCN(CCc7cc(F)c([C@H]8CCC(=O)NC8=O)c(F)c7)CC6)CC5)cc4OC)ncc3Br)ccc2n1 [Example 484, (R)-3-(4-(2-(4-(1-(4-((5-bromo-4-((5-(dimethylphosphoryl)-2-ethylquinolin-6-yl)amino)pyrimidin-2-yl)amino)-2-ethyl-5-methoxyphenyl)piperidin-4-yl)piperazin-1-yl)ethyl)-2,6-difluorophenyl)piperidine-2,6-dione]
DC50 [5, 11]: 0.781 nM | Dmax (%) H1975 # 28 DTC [5, 10]: 89.6% | H1975 #23 DC Dmax (%) ([6]; 16h treatment): 82.99% | DC50 [6, 12]: 3.54 nM | DC50 [7, 13]: 11.9 nM
